Experimental data published in PubChem BioAssay (NCI).
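Growth conditions: 96-well plates. Treatment: test compound, 48 hours, 5 concentrations. Analysis: linear interpolation between bracketing concentrations; unreached endpoints set to highest concentration. TGI denotes the concentration required for complete inhibition of growth.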

Columns and labels:
Test in all cases: DTP human tumour cell line panel, 48 h
PC-3 prostate = system: PC-3 prostate
SF-295 CNS = system: SF-295 CNS
NCI-H460 lung = system: NCI-H460 lung
UACC-62 melanoma = system: UACC-62 melanoma
786-0 renal = system: 786-0 renal
ACHN renal = system: ACHN renal
UACC-257 melanoma = system: UACC-257 melanoma
UO-31 renal = system: UO-31 renal
DU-145 prostate = system: DU-145 prostate
HCT-116 colon = system: HCT-116 colon
EKVX NSCLC = system: EKVX NSCLC
SN12C renal = system: SN12C renal
NCI/ADR-RES ovarian = system: NCI/ADR-RES ovarian
SW-620 colon = system: SW-620 colon
NCI-H23 lung = system: NCI-H23 lung
MDA-N = system: MDA-N
BT-549 breast = system: BT-549 breast
NCI-H226 lung = system: NCI-H226 lung
MDA-MB-435 = system: MDA-MB-435
U251 CNS = system: U251 CNS
MOLT-4 leukemia = system: MOLT-4 leukemia
HS 578T breast = system: HS 578T breast
SK-MEL-28 melanoma = system: SK-MEL-28 melanoma
OVCAR-5 ovarian = system: OVCAR-5 ovarian
SK-OV-3 ovarian = system: SK-OV-3 ovarian
SR leukemia = system: SR leukemia
M14 melanoma = system: M14 melanoma
TK-10 renal = system: TK-10 renal
RXF 393 renal = system: RXF 393 renal
SF-268 CNS = system: SF-268 CNS
SF-539 CNS = system: SF-539 CNS
MDA-MB-231 breast = system: MDA-MB-231 breast
K-562 leukemia = system: K-562 leukemia
IGROV1 ovarian = system: IGROV1 ovarian
SK-MEL-2 melanoma = system: SK-MEL-2 melanoma
CCRF-CEM leukemia = system: CCRF-CEM leukemia
CAKI-1 renal = system: CAKI-1 renal
A498 renal = system: A498 renal
OVCAR-3 ovarian = system: OVCAR-3 ovarian
SNB-19 CNS = system: SNB-19 CNS
SNB-75 CNS = system: SNB-75 CNS
HCT-15 colon = system: HCT-15 colon
COLO 205 colon = system: COLO 205 colon
NCI-H522 lung = system: NCI-H522 lung
T-47D breast = system: T-47D breast
HOP-62 NSCLC = system: HOP-62 NSCLC
HOP-92 NSCLC = system: HOP-92 NSCLC
HT29 colon = system: HT29 colon
OVCAR-4 ovarian = system: OVCAR-4 ovarian
HCC-2998 colon = system: HCC-2998 colon
MCF7 breast = system: MCF7 breast
A549 NSCLC = system: A549 NSCLC
SK-MEL-5 melanoma = system: SK-MEL-5 melanoma
MALME-3M melanoma = system: MALME-3M melanoma
KM12 colon = system: KM12 colon
RPMI-8226 leukemia = system: RPMI-8226 leukemia
OVCAR-8 ovarian = system: OVCAR-8 ovarian
LOX IMVI melanoma = system: LOX IMVI melanoma

CCCCCCCCC/C=C1/CC(CO)(COC(=O)c2ccccc2)OC1=O (stereo not drawn)
TGI (PC-3 prostate): 23.1 µM | TGI (SF-295 CNS): 21.9 µM | TGI (NCI-H460 lung): 22 µM | TGI (UACC-62 melanoma): 28.1 µM | TGI (786-0 renal): 29.4 µM | TGI (ACHN renal): 24.9 µM | TGI (UACC-257 melanoma): 27.4 µM | TGI (UO-31 renal): 27.2 µM | TGI (DU-145 prostate): 25.5 µM | TGI (HCT-116 colon): 56.2 µM | TGI (EKVX NSCLC): 28.2 µM | TGI (SN12C renal): 26.4 µM | TGI (NCI/ADR-RES ovarian): 28.8 µM | TGI (SW-620 colon): 27.4 µM | TGI (NCI-H23 lung): 28.3 µM | TGI (MDA-N): 20.6 µM | TGI (BT-549 breast): 27.1 µM | TGI (NCI-H226 lung): 22.9 µM | TGI (MDA-MB-435): 23.3 µM | TGI (U251 CNS): 27.1 µM | TGI (MOLT-4 leukemia): 29.9 µM | TGI (HS 578T breast): 13 µM | TGI (SK-MEL-28 melanoma): 26.6 µM | TGI (OVCAR-5 ovarian): 24.6 µM | TGI (SK-OV-3 ovarian): 36 µM | TGI (SR leukemia): 54 µM | TGI (M14 melanoma): 30.8 µM | TGI (TK-10 renal): 22.7 µM | TGI (RXF 393 renal): 31 µM | TGI (SF-268 CNS): 29.8 µM | TGI (SF-539 CNS): 34.8 µM | TGI (MDA-MB-231 breast): 26.3 µM | TGI (K-562 leukemia): 22.5 µM | TGI (IGROV1 ovarian): 29.6 µM | TGI (SK-MEL-2 melanoma): 32.4 µM | TGI (CCRF-CEM leukemia): 28.7 µM | TGI (CAKI-1 renal): 24.8 µM | TGI (A498 renal): 26.4 µM | TGI (OVCAR-3 ovarian): 31.2 µM | TGI (SNB-19 CNS): 29.1 µM | TGI (SNB-75 CNS): 22.1 µM | TGI (HCT-15 colon): 29.8 µM | TGI (COLO 205 colon): 11.8 µM | TGI (NCI-H522 lung): 26.6 µM | TGI (T-47D breast): 25.1 µM | TGI (HOP-62 NSCLC): 19 µM | TGI (HOP-92 NSCLC): 14.4 µM | TGI (HT29 colon): 31.6 µM | TGI (OVCAR-4 ovarian): 26.5 µM | TGI (HCC-2998 colon): 27.8 µM | TGI (MCF7 breast): 30.5 µM | TGI (A549 NSCLC): 26.7 µM | TGI (SK-MEL-5 melanoma): 19.2 µM | TGI (MALME-3M melanoma): 20.8 µM | TGI (KM12 colon): 30.6 µM

CCCCc1c2c(c(C)c3c1C(=O)OC3)Oc1ccccc1O2
TGI (PC-3 prostate): > 34.8 µM | TGI (SF-295 CNS): > 51.4 µM | TGI (NCI-H460 lung): 18.2 µM | TGI (UACC-62 melanoma): > 100 µM | TGI (786-0 renal): > 36.9 µM | TGI (ACHN renal): > 100 µM | TGI (UACC-257 melanoma): 96.9 µM | TGI (UO-31 renal): > 100 µM | TGI (DU-145 prostate): > 43.8 µM | TGI (HCT-116 colon): 27.1 µM | TGI (EKVX NSCLC): > 100 µM | TGI (SN12C renal): 38.3 µM | TGI (NCI/ADR-RES ovarian): 20.5 µM | TGI (SW-620 colon): > 42 µM | TGI (NCI-H23 lung): > 100 µM | TGI (MDA-N): 0.456 µM | TGI (BT-549 breast): > 100 µM | TGI (NCI-H226 lung): > 81.1 µM | TGI (MDA-MB-435): 1.59 µM | TGI (U251 CNS): 14.9 µM | TGI (MOLT-4 leukemia): > 100 µM | TGI (HS 578T breast): 5.8 µM | TGI (SK-MEL-28 melanoma): > 100 µM | TGI (OVCAR-5 ovarian): > 100 µM | TGI (SK-OV-3 ovarian): > 100 µM | TGI (SR leukemia): > 40.1 µM | TGI (M14 melanoma): > 100 µM | TGI (TK-10 renal): > 71.3 µM | TGI (RXF 393 renal): 7.98 µM | TGI (SF-268 CNS): > 100 µM | TGI (SF-539 CNS): 3.67 µM | TGI (MDA-MB-231 breast): > 55.6 µM | TGI (K-562 leukemia): 22.4 µM | TGI (IGROV1 ovarian): > 100 µM | TGI (SK-MEL-2 melanoma): > 33.7 µM | TGI (RPMI-8226 leukemia): > 24.5 µM | TGI (CCRF-CEM leukemia): > 100 µM | TGI (OVCAR-8 ovarian): 35.7 µM | TGI (CAKI-1 renal): > 100 µM | TGI (A498 renal): > 46.5 µM | TGI (LOX IMVI melanoma): > 100 µM | TGI (OVCAR-3 ovarian): 1.51 µM | TGI (SNB-19 CNS): > 75 µM | TGI (SNB-75 CNS): 13.4 µM | TGI (HCT-15 colon): > 100 µM | TGI (COLO 205 colon): 7.69 µM | TGI (NCI-H522 lung): 1.15 µM | TGI (T-47D breast): > 100 µM | TGI (HOP-62 NSCLC): > 68.3 µM | TGI (HOP-92 NSCLC): > 100 µM | TGI (HT29 colon): > 40.9 µM | TGI (OVCAR-4 ovarian): > 95.6 µM | TGI (HCC-2998 colon): 3.22 µM | TGI (MCF7 breast): > 100 µM | TGI (A549 NSCLC): > 43.2 µM | TGI (SK-MEL-5 melanoma): > 26.2 µM | TGI (MALME-3M melanoma): > 100 µM | TGI (KM12 colon): > 100 µM
